Results on 2 compounds are retold here after patent publication US20020042393A1, “Excipient” (priority 1998, published 2002).

Each structure is given as a SMILES string.

Common to all, as to type: physicochemical
A short description of series [1]: Proportion of particles of 75 μm or more (Air Jet Sieve). As to conditions: excipient powder. The method, then: Five grams of trehalose was weighed onto a screen having a screen opening of 75 μm, and sifted with Air Jet Sieve (Model 200LS, mfd. by ALPINE) for 5 minutes, and the weight percentage of the weight of particles remaining on the screen based on the total weight of particles was calculated as the proportion of particles of 75 μm or more.

A short description of series [2]: Tablet hardness (Schleuniger hardness meter).
Series [3] in a line: Average particle size (sieving, 50% cumulative weight). As to conditions: excipient powder. The method, then:
Five grams of trehalose was sifted through screens having screen openings of 500 μm, 300 μm and 250 μm, respectively, and then sifted with Air Jet Sieve by using screens having screen openings of 150 μm, 75 μm, 45 μm, 38 μm and 32 μm, respectively. The oversize particle weight percentage [%] was calculated for each screen, and the average particle size is expressed as a particle size corresponding to a cumulative weight percentage of 50%.

Series [4] is described as follows: Whiteness of powder (color analyzer). Particulars: excipient powder. As for the experimental part: (§1) For powder of trehalose or a pharmaceutical composition containing trehalose, values of L, a and b were measured with a color analyzer (TC-1800MKII, mfd. by Tokyo Denshoku Co., Ltd.), and the whiteness of the trehalose or pharmaceutical composition was calculated by the following equation: […]

The nature of series [5]: Colour change of molded product stored at 40° C. for 3 months. As to conditions: Example 9 process molded product in glass bottle. The method, then: This molded product and the rapidly disintegrable molded product obtained in Example 9 by using the trehalose B were placed in separate glass bottles, respectively, and stored at 40° C. for 3 months.
A short description of series [6]: Change in whiteness of excipient mixed with drug at 40° C. and 75% RH (reactivity). As for the experimental part: as §1
One gram of each of the trehaloses obtained in Example 1 and 1 g of isoniazid were mixed and then allowed to stand in an atmosphere of 40° C. and 75% RH, and the change in whiteness of the trehalose was observed. On the other hand, 1 g of each of the trehaloses obtained in Example 1 and 1 g of aminophyline were mixed and then allowed to stand in an atmosphere of 40° C. and 75% RH, and the change in whiteness of the trehalose was observed.
One gram of 100-mesh lactose (available from De Melkindustrie Veghel bv) or 1 g of Mannit S (available from Tohwa Kasei Co., Ltd.) and 1 g of aminophyline were mixed and then allowed to stand in an atmosphere of 40° C. and 75% RH, and the change in whiteness of the lactose or Mannit S was observed.
As a starting material. […]

Series [7] can be described thus: Angle of repose (Sugiwara's instrument). Particulars: excipient powder. The text has this:
Measured by means of a Sugiwara's instrument for measuring angle of repose (Yakuzaigaku 27, p. 260, 1965).

The next series can be described thus: Apparent specific volume. Particulars: excipient powder. An excerpt: The whole of 10 g of trehalose powder was gently poured into a 100-ml measuring cylinder without making an impact (in this case, a cylinder having an outside diameter smaller than the inside diameter of the measuring cylinder was placed in the measuring cylinder, and it was slowly lifted after pouring the trehalose), and the apparent specific volume was expressed as a value obtained by dividing the read volume by the weight of the trehalose.

Series [8] in a line: Water content (Karl Fisher) of tablets before and after storage. Particulars: tablets compressed at 500 kg/cm^2. As for the experimental part:
Determined as a value obtained by measuring about 0.1 g of trehalose and determining its water content by the Karl Fisher method.
One hundred grams of commercial “Trehaose” (available from Hayashibara Biochemical Laboratories, Inc.) was dissolved in water to a concentration of about 35 wt %, and the resulting solution was concentrated under reduced pressure with heating at 60° C. so as to have a concentration of about 75 wt %, and allowed to stand at room temperature to precipitate crystals, which were washed with 50 ml of water. Glucose was removed by carrying out the above purification procedure once or twice, to increase the trehalose purity. Trehalose A was obtained by carrying out the purification procedure twice to obtain crystals, drying the crystals, grinding the dried crystals with a bantam mill (number of revolutions 15,000 rpm, feed rate 5 kg/hr, and screen opening 2.0 mmφ), and then sifting the ground crystals through a […]. Trehalose B was obtained by carrying out the purification procedure once to obtain crystals, drying the crystals, grinding the dried crystals with a bantam mill (number of revolutions 10,000 rpm, feed rate 5 kg/hr, and screen opening 2.00 mmφ), and then sifting the ground crystals through a 350-μm screen. Trehalose C was obtained by carrying out the purification procedure once to obtain crystals, drying the crystals, grinding the dried crystals with a bantam mill (number of revolutions 8,000 rpm, feed rate 5 kg/hr, and screen opening 2.0 mmφ), and then sifting the ground crystals through a 350-μm screen. […] Each of trehaloses A to C was compressed into tablets at a compression pressure of 500 kg/cm^2, and the tablet hardness immediately after the compression and the tablet hardness after standing for 3 days in an atmosphere of 40° C. and 75% RH after the compression were compared.
“Trehaose” (available from Hayashibara Bioscience Laboratories Co., Ltd.) was purified once by the method described in Example 1 to obtain crystals, which were dried, ground with a bantam mill (number of revolutions 12,000 rpm, feed rate 5 kg/hr, and screen opening 2.0 mmφ) and then dried at 105° C. for 4 hours to obtain trehalose anhydrous crystals. These crystals were compressed into tablets at a compression pressure of 500 kg/cm^2, and the tablet hardnesses of the tablets were compared in the same manner as in Example 1.

Series [9] can be described thus: Disintegration time according to Japanese Pharmacopoeia. The method, then: The disintegration time of each of six molded products was measured by the use of ion-exchanged water according to the disintegration time measuring method prescribed in the 13th revised Japanese Pharmacopoeia, and the average of measured values was calculated.
Series [10] in a line: Consolidation of powder during storage. As to conditions: compared with trehaloses B and C.
The mark [11] stands for this setting: Example 10: as Example 9 but molded at 60 kg/cm^2, listed as B.
Where [12] appears, read: Example 10: as Example 9 but molded at 60 kg/cm^2, listed as A.
The mark [13] stands for this setting: ascorbic acid tablets (Example 12), compression pressure 500 kg/cm^2.
[14] abbreviates: ascorbic acid tablets (Example 12), compression pressure 800 kg/cm^2.

Regarding `OC[C@H]1O[C@H](O[C@H]2O[C@H](CO)[C@@H](O)[C@H](O)[C@H]2O)[C@H](O)[C@@H](O)[C@@H]1O` [Trehalose B, trehalose], the “Proportion of particles of 75 μm or more” value in series [1] (listed as B) is 46%. Moreover, the Tablet hardness in series [2] (Example 8: molded product of trehalose only, molded at 30 kg/cm^2, dried overnight at 40° C., listed as B) stood at 6.6 kg; in series [2] (setting [11]) it was 9.4 kg; in [2] (process of Example 9: 950 g excipient + 50 g phenylpropanolamine hydrochloride, molded at 30 kg/cm^2, listed as B) it was 6.5 kg; in series [2] (tablets compressed at 500 kg/cm^2, 0 day (immediately after compression), listed as B), 2.5 kgf; in series [2] (tablets compressed at 500 kg/cm^2, 3 days at 40° C. and 75% RH, listed as B) it was 2.4 kgf. In [3] (listed as B), this compound returned an Average particle size of 72 μm. The Whiteness in series [4] (listed as B) worked out at 97%; in series [6] (1 g excipient + 1 g aminophyline, 0 day, listed as B) it was 99%; in series [6] (1 g excipient + 1 g aminophyline, 40° C. and 75% RH, 1 month, listed as B), 97%; in [6] (1 g excipient + 1 g isoniazid, 0 day, listed as B) it was 98%; in series [6] (1 g excipient + 1 g isoniazid, 40° C. and 75% RH, 1 month, listed as B) it was 96%. In addition, in [5], the “Change in color of molded product” value is “somewhat yellowed”. For the same compound, the Angle of repose in [7] (listed as B) worked out at 42 °. Moreover, the Apparent specific volume in “Apparent specific volume” (listed as B) is given as 2.2 cm^3/g. The compound further returned a Water content in [8] (0 day, listed as B) of 9.8%. Further, the “Disintegration time according to Japanese Pharmacopoeia” value in [9] (Example 8: molded product of trehalose only, 30 kg/cm^2, listed as B) stood at 12 s; in [9] (setting [11]), 45 s; in series [9] (process of Example 9: 950 g excipient + 50 g phenylpropanolamine hydrochloride, 30 kg/cm^2, listed as B), 14 s.

As to `OC[C@H]1O[C@H](O[C@H]2O[C@H](CO)[C@@H](O)[C@H](O)[C@H]2O)[C@H](O)[C@@H](O)[C@@H]1O` [Trehalose A, trehalose], the “Proportion of particles of 75 μm or more” value in series [1] (listed as A) stood at 15%. Further, the Tablet hardness in [2] (Example 8: molded product of trehalose only, molded at 30 kg/cm^2, dried overnight at 40° C., listed as A) came out at 7.5 kg; in [2] (setting [12]), 10.2 kg; in series [2] (setting [13]), 4.0 kgf; in series [2] (setting [14]), 7.0 kgf; in series [2] (process of Example 9: 950 g excipient + 50 g phenylpropanolamine hydrochloride, molded at 30 kg/cm^2, listed as A), 7.0 kg; in series [2] (tablets compressed at 500 kg/cm^2, 0 day (immediately after compression), listed as A), 2.6 kgf. In series [2] (tablets compressed at 500 kg/cm^2, 3 days at 40° C. and 75% RH, listed as A), this compound displayed a Tablet hardness of 2.5 kgf. The Consolidation during storage result in [10] is “consolidated during storage”. In [3] (listed as A), this compound displayed an Average particle size of 35 μm. In addition, the Whiteness is 98% in series [4] (listed as A); 100% in series [6] (1 g excipient + 1 g aminophyline, 0 day, listed as A); 98% in [6] (1 g excipient + 1 g aminophyline, 40° C. and 75% RH, 1 month, listed as A); 98% in series [6] (1 g excipient + 1 g isoniazid, 0 day, listed as A); 97% in series [6] (1 g excipient + 1 g isoniazid, 40° C. and 75% RH, 1 month, listed as A). This compound also came in with an Angle of repose in series [7] (listed as A) of 48 °. The Apparent specific volume in the series “Apparent specific volume” (listed as A) came out at 3.1 cm^3/g. Also, the Water content came out at 9.7% in series [8] (0 day, listed as A); 9.8% in series [8] (3 days at 40° C. and 75% RH). Moreover, the “Disintegration time according to Japanese Pharmacopoeia” value turned out to be 15 s in series [9] (Example 8: molded product of trehalose only, 30 kg/cm^2, listed as A); 52 s in series [9] (setting [12]); 17 s in series [9] (setting [13]); 25 s in series [9] (setting [14]); 16 s in [9] (process of Example 9: 950 g excipient + 50 g phenylpropanolamine hydrochloride, 30 kg/cm^2, listed as A).
